According to article PMC12427341, “Phytochemical-Mediated Modulation of Doramectin Pharmacology in Sheep: Exploring the Cinnamaldehyde–Pink Grapefruit Combination” (Animals : an Open Access Journal from MDPI, 2025):
“And” between values parts separate entries of the source, which are not always exact repeats. Equal entries are not always repeated. Marks after values point to notes of the source that are not given here.

What was measured:
[1] = tested on: Syphacia muris; set-up: method as in doi:10.2478/acve-2018-0036; conditions: rats infected with Syphacia muris; cited from earlier work
[2] = tested on: Ascaris suum; set-up: method as in PMID 26420588; conditions: pigs; cited from earlier work
[3] = rats; cited from earlier work
[4] = tested on: resistant gastrointestinal nematodes; experiment: Fecal egg count reduction test (FECRT), trial 1: DRM, CNM–PGF and their combination as oral emulsions; assay type: in vivo, lambs
Protocol: The coadministration of DRM and CNM–PGF, both by an oral emulsion, was evaluated in lambs. The trial involved 35 Corriedale and Texel crossbred lambs (mean body weight, 26 kg) naturally infected with resistant gastrointestinal nematodes and was conducted in a sheep experimental unit (Estación Experimental INTA, Balcarce, Argentina). […] Animals were kept in a paddock and fed hay ad libitum, together with commercial concentrate feed. All animals had free access to water. Lambs were assigned to four experimental groups sorted by EPG count. Group A received an emulsion containing DRM (single dose of 0.2 mg/kg) (n = 9). Group B received CNM–PGF orally as an emulsion (two doses of 100 mg/kg every 24 h) (n = 9). Lambs of Group C were treated with an emulsion containing both DRM and CNM–PGF on the first day, and the second day, they received an emulsion of CNM–PGF only (n = 9). Group D included untreated lambs (n = 8). […] CNM–PGF was formulated as an emulsion composed of Tween-80/sesame oil (3:1) 20% at a final concentration of 15% CNM and 15% PGF. Briefly, the CNM–PGF emulsion was prepared using the high-energy ultrasonic method. CNM and PGF were mixed with sesame oil to form the oil phase. The oil phase was added dropwise to the aqueous phase containing Tween-80 and distillated water while stirring, and the emulsion formed was then subjected to ultrasonic emulsification for 15 min. The same steps were performed for the DRM + CNM–PGF emulsion, the synthetic compound was added to the oil phase, and their final concentration was 0.03%. […] To evaluate the effect of the treatment, individual fecal samples from all the lambs were collected on days −1, 7, and 14 of treatment, and the fecal egg count reduction (FECR) was calculated. The coprocultures were prepared with 10 g of feces from a pool of each experimental group obtained on days −1 and 14. The nematode genera and species were identified through the third-stage larvae recovered from the coprocultures.
(§1) Data are expressed as mean ± standard deviation (SD). Rho123 transport across the ileum is presented as ng of Rho123 in the receptor side of the chamber. The plasma concentration versus time curves obtained after treatment of each animal were fitted with the PK Solutions 2.0 software (summit Research Services, Ashland, OH, USA) software. Pharmacokinetic parameters were determined using a noncompartmental model method. The evaluation of the FECR was calculated according to the following formula [33], with modifications: FECR %=100 × (1−T2/T1) where T1 and T2 are the arithmetic mean EPG counts in the treated group on days 0 and 14, respectively. The 90% confidence intervals were calculated following the method of reference.
The statistical analysis was performed using Prism 8.0 (GraphPad Software, San Diego, CA, USA). ANOVA or Kruskal–Wallis tests were used for the statistical comparison. Tukey or Dunn tests were used for post hoc multiple comparisons. The egg counts obtained for each treatment on Day 14 were compared with the corresponding baseline counts on Day 0 using the Wilcoxon matched-pairs signed rank test. Differences were considered statistically significant at p < 0.05.

[5] = tested on: Haemonchus spp.; experiment: Efficacy by nematode genus (coprocultures), trial 1; assay type: in vivo, Haemonchus contortus; conditions: day 14, oral, lambs n = 9
Protocol: (§2) The coadministration of DRM and CNM–PGF, both by an oral emulsion, was evaluated in lambs. The trial involved 35 Corriedale and Texel crossbred lambs (mean body weight, 26 kg) naturally infected with resistant gastrointestinal nematodes and was conducted in a sheep experimental unit (Estación Experimental INTA, Balcarce, Argentina). There, a parasite control program based on the intensive use of antiparasitic drugs has been implemented for many years, leading to anthelmintic resistance to MLs and benzimidazoles. Animals were selected based on worm egg per gram counts (EPG), with an average EPG count of 2102 ± 1662. Animals were kept in a paddock and fed hay ad libitum, together with commercial concentrate feed. All animals had free access to water. Lambs were assigned to four experimental groups sorted by EPG count. Group A received an emulsion containing DRM (single dose of 0.2 mg/kg) (n = 9). Group B received CNM–PGF orally as an emulsion (two doses of 100 mg/kg every 24 h) (n = 9). Lambs of Group C were treated with an emulsion containing both DRM and CNM–PGF on the first day, and the second day, they received an emulsion of CNM–PGF only (n = 9). Group D included untreated lambs (n = 8). […] To evaluate the effect of the treatment, individual fecal samples from all the lambs were collected on days −1, 7, and 14 of treatment, and the fecal egg count reduction (FECR) was calculated. […]

[6] = tested on: Cooperia spp.; experiment: as above; assay type: in vivo; conditions: day 14, oral, lambs n = 9
Protocol: as §2, with “8). The selected phytochemical dose was based on previous in vivo studies with other monoterpenes, such as thymol and carvone, which were administered to lambs at doses ranging from 100 to 150 mg/kg, without adverse effects. CNM–PGF was formulated as an emulsion composed of Tween-80/sesame oil (3:1) 20% at a final concentration of 15% CNM and 15% PGF. Briefly, the CNM–PGF emulsion was prepared using the high-energy ultrasonic method. CNM and PGF were mixed with sesame oil to form the oil phase. The oil phase was added dropwise to the aqueous phase containing Tween-80 and distillated water while stirring, and the emulsion formed was then subjected to ultrasonic emulsification for 15 min.” for “8).”

[7] = tested on: Teladorsagia spp.; experiment: as above; assay type: in vivo; conditions: day 14, oral, lambs n = 9
Protocol: as §2, with “8). The selected phytochemical dose was based on previous in vivo studies with other monoterpenes, such as thymol and carvone, which were administered to lambs at doses ranging from 100 to 150 mg/kg, without adverse effects. CNM–PGF was formulated as an emulsion composed of Tween-80/sesame oil (3:1) 20% at a final concentration of 15% CNM and 15% PGF. Briefly, the CNM–PGF emulsion was prepared using the high-energy ultrasonic method. CNM and PGF were mixed with sesame oil to form the oil phase. The oil phase was added dropwise to the aqueous phase containing Tween-80 and distillated water while stirring, and the emulsion formed was then subjected to ultrasonic emulsification for 15 min.” for “8).”

[8] = tested on: Trichostrongylus spp.; experiment: as above; assay type: in vivo; conditions: day 14, oral, lambs n = 9
Protocol: as §2, with “8). The selected phytochemical dose was based on previous in vivo studies with other monoterpenes, such as thymol and carvone, which were administered to lambs at doses ranging from 100 to 150 mg/kg, without adverse effects. CNM–PGF was formulated as an emulsion composed of Tween-80/sesame oil (3:1) 20% at a final concentration of 15% CNM and 15% PGF. Briefly, the CNM–PGF emulsion was prepared using the high-energy ultrasonic method. CNM and PGF were mixed with sesame oil to form the oil phase. The oil phase was added dropwise to the aqueous phase containing Tween-80 and distillated water while stirring, and the emulsion formed was then subjected to ultrasonic emulsification for 15 min.” for “8).”

[9] = Plasma pharmacokinetics of DRM after oral administration alone or with CNM–PGF or LPM; conditions: DRM 0.2 mg/kg oral emulsion; sheep n = 7; mean ± SD
Protocol: (§3) An in vivo assay was performed to evaluate the pharmacokinetics and the efficacy of DRM orally administered alone or in combination with CNM–PGF and LPM against resistant gastrointestinal nematodes in lambs. For the trial, 27 naturally infected Corriedale and Texel crossbreed lambs (average weight, 33 kg) were used. On day −1, all lambs were checked for EPG and tagged, and the individual body weights were recorded. As in the previous assay (Trial 2.1), the selection of the animals was based on EPG. […] Lambs were housed in a paddock with access to hay, commercial concentrates, and water ad libitum. Lambs were assigned into three experimental groups. Group A received DRM (0.2 mg/kg) as an oral emulsion (n = 7). Lambs in groups B and C received an emulsion containing DRM (a single dose of 0.2 mg/kg) and either LPM (n = 7) (three oral doses of 0.3 mg/kg, every 24 h) or CNM–PGF (n = 7) (three oral doses containing 72 and 64 mg/kg of CNM and PGF, respectively, every 24 h). Group D served as the untreated control (n = 6). As appropriate, the final concentrations of the active ingredients within the formulations were DRM 5%, CNM 18%, PGF 16%, LPM 30%. The compounds were diluted in Tween-80 11%, sesame oil 1–30%, and distilled water. The formulations were prepared using a similar method to that used in the previously described trial (Trial 2.1).
(§4) For the plasma disposition of DRM, jugular blood samples (2 mL) were collected into heparinized vacutainer tubes before treatment and at 3, 6, 9, 24, 30, 48, and 54 h and 3, 4, 7, 10, and 14 days post treatment. Blood samples were centrifuged at 2000× g for 15 min; the recovered plasma was kept in labeled vials and stored at −20 °C until the analysis of DRM by high performance liquid chromatography (HPLC). The effect of each treatment was indirectly estimated by collecting fecal samples on days −1 and 14 of administration to evaluate the FECR.
as §1

[10] = tested on: resistant gastrointestinal nematodes; experiment: Fecal egg count reduction test (FECRT), trial 2: DRM alone or with CNM–PGF or LPM; assay type: in vivo, lambs
Protocol: as §3, §4, §1
The statistical analysis was performed using Prism 8.0 (GraphPad Software, San Diego, CA, USA). ANOVA or Kruskal–Wallis tests were used for the statistical comparison. […]

[11] = tested on: Haemonchus spp.; experiment: Efficacy by nematode genus, trial 2; assay type: in vivo, Haemonchus contortus; conditions: day 14, oral, lambs n = 7
Text: (§5) Lambs were assigned into three experimental groups. […] Group D served as the untreated control (n = 6).

[12] = tested on: Teladorsagia spp.; experiment: Efficacy by nematode genus, trial 2; assay type: in vivo; conditions: day 14, oral, lambs n = 7
Text: as §5

[13] = tested on: Trichostrongylus spp.; experiment: Efficacy by nematode genus, trial 2; assay type: in vivo; conditions: day 14, oral, lambs n = 7
Text: as §5

[14] = tested on: P-glycoprotein
Protocol: (§6) A series of ex vivo experiments were performed to evaluate the interaction of DRM, CNM–PGF, or LPM with ABC transporters. […] For this assay, sheep ileum samples were obtained from a local slaughterhouse (Ayacucho, Argentina). […] The incubation process was started immediately after obtaining the tissue. During the preparation and assembly process, intestinal tissue was always maintained between 0–4 °C. The tissue was then mounted vertically in a diffusion chamber with an internal surface area of 0.8 cm^2. […] Both the mucosal (M) and serosal (S) sides were filled with 7 and 5 mL of prewarmed and oxygenated Krebs buffer, respectively. […] During preparation, chambers were preincubated to slough off any dead cells, and during this period, the tissue were exposed in the donor side to the presence or absence of 5 µM of DRM; 1.5 mM of CNM–PGF; or 50 µM of LPM, a well-established P-gp modulator, which was used as a positive control [25, 26]. After a 20 min equilibration period, Krebs buffer was completely replaced with fresh medium fortified with 0.5 µM of Rho123 as a substrate to the M or S side of the chambers for measuring the absorption and secretion processes, respectively. Thus, Rho123 was incubated alone (control assays) or in the presence of DRM, CNM–PGF, or LPM. Tissues were incubated for 4 h, and each hour, aliquots of 1 mL were collected from the receptor side and replaced with fresh Krebs buffer.
(§7) Samples from the receptor side (1 mL) were mixed with 2 mL of distillated water to reach a final volume of 3 mL.
(§8) Values of unidirectional transepithelial effective permeability (Peff) (cm.s^−1) were calculated for each chamber according to the following equation: Peff=dC/dT1/A.C0
(§9) The appearance rate on the receiving compartment is dC/dT, calculated from the slope of the concentration versus time curve over a time period of 4 h (Rho123); A is the exposed area (cm^2) of the tissue in the Ussing chamber (0.8 cm^2), and C0 is the initial drug concentration (ng/mL) in the donor compartment. The efflux ratio (ER) was calculated as follows: ER=mean Peff S−M/mean Peff M−S
(§10) The intestinal absorption is represented by permeability in the M–S direction. The S–M side can also be used to measure permeability, in this case characterizes intestinal secretion. A higher Peff S–M compared to the Peff M–S is indicative of carrier-mediated transport.

[15] = set-up: method as in PMID 11106995; conditions: sheep; cited from earlier work
[16] = tested on: P-glycoprotein; experiment: Ex vivo intestinal transport of rhodamine 123 across sheep ileum (diffusion chamber model); conditions: 0.5 µM Rho123, 5 µM DRM, 1.5 mM CNM–PGF or 50 µM LPM, 4 h
Protocol: as §6, §7, §8, §9, §10

[17] = day 14, lower-upper confidence limit

O=C/C=C/c1ccccc1 [CNM, cinnamaldehyde]
In vivo efficacy [1]: no in vivo efficacy was observed | In vivo anthelmintic effect [2]: failed to exert any in vivo anthelmintic effect | Oral LD50 [3]: approximately 2220 mg/kg

CO[C@H]1C[C@H](O[C@H]2[C@H](C)O[C@@H](O[C@@H]3/C(C)=C/C[C@@H]4C[C@@H](C[C@]5(C=C[C@H](C)[C@@H](C6CCCCC6)O5)O4)OC(=O)[C@@H]4C=C(C)[C@@H](O)[C@H]5OC/C(=C\C=C\[C@@H]3C)[C@]54O)C[C@@H]2OC)O[C@@H](C)[C@@H]1O [DRM, doramectin]
Mean egg per gram (EPG) counts (±SD), Day 14 ([4]; 14 days after oral administration, DRM 0.2 mg/kg single dose, CNM–PGF two doses of 100 mg/kg every 24 h, lambs n = 9): 910 ± 2548 EPG and 910 ± 2548 ^abB EPG | Mean egg per gram (EPG) counts (±SD), Day 0 ([4]; baseline before treatment, lambs n = 9, mean ± SD): 2716 ± 2641 ^aA EPG | Prevalence of egg count negativization (percentage of animals with an egg count of zero) ([4]; day 14): 40% | FECR (LCL-UCL), 90% confidence interval [4, 17]: (0–98) % | FECR (%) ([4]; day 14, oral emulsion, lambs n = 9): 66% | Efficacy (%) against Haemonchus spp. [5]: 0% | Efficacy (%) against Cooperia spp. [6]: 100% | Efficacy (%) against Teladorsagia spp. [7]: 100% | Efficacy (%) against Trichostrongylus spp. [8]: 100% | AUC0–t of DRM in plasma [9]: 90.84 ± 33.61 ^a ng d/mL | Cmax of DRM in plasma [9]: 25.76 ± 10.01 ^a ng/mL | T max of DRM in plasma [9]: 0.93 ± 0.47 ^a days | T ½ el (elimination half-life) of DRM [9]: 2.19 ± 0.41 ^a days | Mean egg per gram (EPG) counts (±SD), Day 14 ([10]; 14 days after oral DRM 0.2 mg/kg, LPM three doses of 0.3 mg/kg, CNM–PGF three doses of 72 and 64 mg/kg, every 24 h, lambs n = 7): 694 ± 944 EPG and 694 ± 944 ^aB EPG | Mean egg per gram (EPG) counts (±SD), Day 0 ([10]; baseline before treatment, lambs n = 7, mean ± SD): 1586 ± 984 ^aA EPG | FECR (LCL-UCL), 90% confidence interval [10, 17]: (9–88) % | FECR (%) ([10]; day 14, oral emulsion, lambs n = 7): 56% | Efficacy (%) against Haemonchus spp. [11]: 0% | Efficacy (%) against Teladorsagia spp. [12]: 82% | Efficacy (%) against Trichostrongylus spp. [13]: 100% | Efflux ratio (ER) of Rho123 in the presence of the modulator [14]: 4.66 | Absolute oral bioavailability [15]: 25% | Peff M–S of Rho123 in the presence of the modulator [16]: 3.83 ± 1.87 ×10⁻⁶ cm/s

CN(C)C(=O)C(CCN1CCC(O)(c2ccc(Cl)cc2)CC1)(c1ccccc1)c1ccccc1 [LPM, loperamide]
Peff M–S of Rho123 in the presence of the modulator [16]: 3.84 ± 1.02 ×10⁻⁶ cm/s
